Test results published in the supplement of paper PMC10883282.

Tests used:
Test in all cases: relative viability vs DMSO control (72 h) (fraction); higher = more viable cells
SW684 = test system: SW684
In short: (§1)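 Sarcoma cell lines were seeded in 384-well plates at densities set to reach 80–90% confluence. After 24 h, 2.5 µl of serially diluted compound was added (source plates 10 mM to 0.0002 mM), and plates were held 72 h at 37 °C, 5% CO2, with 0.1% DMSO vehicle and a 5 µM positive control. Relative viability came from ATPLite readings as percent growth, averaged over up to triplicate wells. Data were rescaled so full viability equals 1 and none equals 0.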

A204 = test system: A204
In short: as §1

SK-ES-1 = test system: SK-ES-1
In short: as §1

G401 = test system: G401
In short: as §1

SK-LMS-1 = test system: SK-LMS-1
In short: as §1

HS729 = test system: HS729
In short: as §1

SW872 = test system: SW872
In short: as §1

MES-SA = test system: MES-SA
In short: as §1

SYO-1 = test system: SYO-1
In short: as §1

SW1353 = test system: SW1353
In short: as §1

SW982 = test system: SW982
In short: as §1

KHOS-240S = test system: KHOS-240S
In short: as §1

COc1cc2nccc(Oc3ccc(NC(=O)C4(C(=O)Nc5ccc(F)cc5)CC4)cc3)c2cc1OC [Cabozantinib]
Conditions | relative viability
A204, 0.00017 µM | 1.04
A204, 0.00051 µM | 1.1
A204, 0.00152 µM | 1.06
A204, 0.00457 µM | 1.06
A204, 0.01372 µM | 0.9735
A204, 0.04115 µM | 0.785
A204, 0.1235 µM | 0.428
A204, 0.3704 µM | 0.378
A204, 1.111 µM | 0.341
A204, 3.333 µM | 0.312
A204, 10 µM | 0.229
G401, 0.00017 µM | 1.08
G401, 0.00051 µM | 1.05
G401, 0.00152 µM | 1.02
G401, 0.00457 µM | 1.06
G401, 0.01372 µM | 1.05
G401, 0.04115 µM | 0.997
G401, 0.1235 µM | 0.969
G401, 0.3704 µM | 0.858
G401, 1.111 µM | 0.804
G401, 3.333 µM | 0.514
G401, 10 µM | 0.215
HS729, 0.00017 µM | 1.1
HS729, 0.00051 µM | 0.966
HS729, 0.00152 µM | 0.973
HS729, 0.00457 µM | 0.928
HS729, 0.01372 µM | 0.9662
HS729, 0.04115 µM | 0.897
HS729, 0.1235 µM | 0.83
HS729, 0.3704 µM | 0.749
HS729, 1.111 µM | 0.64
HS729, 3.333 µM | 0.504
HS729, 10 µM | 0.288
KHOS-240S, 0.00017 µM | 1.11
KHOS-240S, 0.00051 µM | 1.08
KHOS-240S, 0.00152 µM | 1.08
KHOS-240S, 0.00457 µM | 1.06
KHOS-240S, 0.01372 µM | 1.06
KHOS-240S, 0.04115 µM | 1.07
KHOS-240S, 0.1235 µM | 1.02
KHOS-240S, 0.3704 µM | 1.04
KHOS-240S, 1.111 µM | 0.974
KHOS-240S, 3.333 µM | 0.6869
KHOS-240S, 10 µM | 0.425
MES-SA, 0.00017 µM | 0.994
MES-SA, 0.00051 µM | 0.953
MES-SA, 0.00152 µM | 0.947
MES-SA, 0.00457 µM | 0.948
MES-SA, 0.01372 µM | 0.934
MES-SA, 0.04115 µM | 0.929
MES-SA, 0.1235 µM | 0.912
MES-SA, 0.3704 µM | 0.89
MES-SA, 1.111 µM | 0.807
MES-SA, 3.333 µM | 0.262
MES-SA, 10 µM | 0.163
SK-ES-1, 0.00017 µM | 1.01
SK-ES-1, 0.00051 µM | 1.05
SK-ES-1, 0.00152 µM | 1.03
SK-ES-1, 0.00457 µM | 0.986
SK-ES-1, 0.01372 µM | 1.04
SK-ES-1, 0.04115 µM | 0.992
SK-ES-1, 0.1235 µM | 1
SK-ES-1, 0.3704 µM | 0.941
SK-ES-1, 1.111 µM | 0.885
SK-ES-1, 3.333 µM | 0.514
SK-ES-1, 10 µM | 0.128
SK-LMS-1, 0.00017 µM | 1.13
SK-LMS-1, 0.00051 µM | 1.13
SK-LMS-1, 0.00152 µM | 1.133
SK-LMS-1, 0.00457 µM | 1.13
SK-LMS-1, 0.01372 µM | 1.09
SK-LMS-1, 0.04115 µM | 0.982
SK-LMS-1, 0.1235 µM | 0.599
SK-LMS-1, 0.3704 µM | 0.379
SK-LMS-1, 1.111 µM | 0.339
SK-LMS-1, 3.333 µM | 0.205
SK-LMS-1, 10 µM | 0.11
SW684, 0.00017 µM | 1.17
SW684, 0.00051 µM | 1.19
SW684, 0.00152 µM | 1.2
SW684, 0.00457 µM | 1.2
SW684, 0.01372 µM | 1.21
SW684, 0.04115 µM | 1.121
SW684, 0.1235 µM | 0.945
SW684, 0.3704 µM | 0.848
SW684, 1.111 µM | 0.852
SW684, 3.333 µM | 0.652
SW684, 10 µM | 0.38
SW872, 0.00017 µM | 1.08
SW872, 0.00051 µM | 1.1
SW872, 0.00152 µM | 1.08
SW872, 0.00457 µM | 1.11
SW872, 0.01372 µM | 1.06
SW872, 0.04115 µM | 1.05
SW872, 0.1235 µM | 1.06
SW872, 0.3704 µM | 1.01
SW872, 1.111 µM | 0.931
SW872, 3.333 µM | 0.626
SW872, 10 µM | 0.4
SW982, 0.00017 µM | 1.04
SW982, 0.00051 µM | 1.01
SW982, 0.00152 µM | 1.03
SW982, 0.00457 µM | 1.035
SW982, 0.01372 µM | 1.036
SW982, 0.04115 µM | 1.07
SW982, 0.1235 µM | 1.05
SW982, 0.3704 µM | 1.03
SW982, 1.111 µM | 0.993
SW982, 3.333 µM | 0.598
SW982, 10 µM | 0.259
SW1353, 0.00017 µM | 1.05
SW1353, 0.00051 µM | 1.02
SW1353, 0.00152 µM | 1.04
SW1353, 0.00457 µM | 0.987
SW1353, 0.01372 µM | 1.01
SW1353, 0.04115 µM | 1.01
SW1353, 0.1235 µM | 0.904
SW1353, 0.3704 µM | 0.8127
SW1353, 1.111 µM | 0.783
SW1353, 3.333 µM | 0.54
SW1353, 10 µM | 0.317
SYO-1, 0.00017 µM | 1
SYO-1, 0.00051 µM | 1
SYO-1, 0.00152 µM | 0.974
SYO-1, 0.00457 µM | 0.91
SYO-1, 0.01372 µM | 0.915
SYO-1, 0.04115 µM | 0.751
SYO-1, 0.1235 µM | 0.708
SYO-1, 0.3704 µM | 0.627
SYO-1, 1.111 µM | 0.451
SYO-1, 3.333 µM | 0.322
SYO-1, 10 µM | 0.129
